Source: US20090011410A1, “METHOD FOR TAILORING ADMINISTRATION OF DRUGS BY QUANTITATION OF MRNA” (priority 2004, published 2009)

Experiments:
Type in all cases: cell-based, human
p21 mRNA [1] = experiment: drug-induced p21 mRNA expression in whole blood of leukemia and lymphoma patients
PUMA mRNA [2] = experiment: drug-induced PUMA mRNA expression in whole blood of leukemia and lymphoma patients; conditions: 2 hours at 37° C.; for PUMA response: NHL patient, drug concentrations (FIG. 8C)
BAX mRNA = experiment: drug-induced BAX mRNA expression in whole blood of leukemia and lymphoma patients; conditions: drug concentrations (FIG. 3)
Description: The mRNA and cDNA were prepared from whole blood. In brief, home-made 96-well filterplates were placed over collection plates, and 150 μl 5 mM Tris, pH 7.4, was applied. Following centrifugation at 120×g for 1 min at 4° C., 50 μl of blood samples were applied to each well and immediately centrifuged at 120×g for 2 min at 4° C., followed by washing of each well with 300 μl PBS once with centrifugation at 2000×g for 5 min at 4° C. Then, 60 μl stock lysis buffer, containing for example 0.5% N-Lauroylsarcosine, 4×SSC, 10 mM Tris HCl, pH 7.4, 1 mM EDTA, 0.1% IGEPAL CA-630, and 1.791 M guanidine thiocyanate, supplemented with 1% 2-mercaptoethanol (Bio Rad, Hercules, Calif., USA), 0.5 mg/ml proteinase K (Pierce, Rockford, Ill., USA), 0.1 mg/ml salmon sperm DNA (5 Prime Eppendorf/Brinkmann, Westbury, N.Y., USA), 0.1 mg/ml E. coli tRNA (Sigma), a cocktail of 10 mM each of the specific reverse primers shown in Table 1, and standard RNA34 oligonucleotides, were applied to the filterplates, followed by incubation at 37° C. for 10 min. The filterplates were then placed over oligo(dT)-immobilized microplates (GenePlate, RNAture), and centrifuged at 2000×g for 5 min at 4° C. Following overnight storage at 4° C., the microplates were washed with 100 μl plain lysis buffer 3 times, followed by 150 μl of wash buffer (0.5 M NaCl, 10 mM Tris, pH 7.4, 1 mM EDTA) 3 times at 4° C. The cDNA was directly synthesized in each well by adding 30 μl buffer containing 1× RT-butter, 1.25 mM each of dNTP, 4 units rRNasin, and 80 units of MMLV reverse transcriptase (Promega) (without primers), and incubation at 37° C. for 2 hours. The specific primer-primed cDNA existed in solution, and oligo(dT)-primed cDNA stayed immobilized in the microplate. For TaqMan PCR (FIGS. 1, 3, 4), the resultant 4 μl cDNA solution was directly transferred to 384-well PCR plates, to which 5 μl of TaqMan universal master mix (ABI) and 1 μl oligonucleotide cocktail (15 μM each of forward and reverse primer, and 3-6 μM TaqMan probe) were applied, and PCR was conducted in PRISM 7900HT (ABI), with one cycle of 95° C. for 10 min followed by 45 cycles of 95° C. for 30 sec, 55° C. for 30 sec, and 60° C. for 1 min. […] The Ct was determined by analytical software (SDS, ABI).

PUMA mRNA [3] = experiment: drug-induced PUMA mRNA expression in whole blood of healthy adults; conditions: 10 or 100 μM taxol, 2 hours at 37° C., all individuals (FIG. 13)
Description: In 8-well strip microtubes, 1.4 μl of 50× concentrations of drugs or controls (phosphate buffered saline (PBS) or DMSO) were added, and stored at −20° C. until use. […] Seventy μl of fresh heparinized whole blood was added into each well in triplicate, and incubated at 37° C. for 2-8 hours with the cap closed. For radiation treatment, blood was stimulated at designated doses using cesium-137. After each treatment, 50 μl of whole blood was transferred to filterplates as described below.
(§1) The mRNA and cDNA were prepared from whole blood. In brief, home-made 96-well filterplates were placed over collection plates, and 150 μl 5 mM Tris, pH 7.4, was applied. Following centrifugation at 120×g for 1 min at 4° C., 50 μl of blood samples were applied to each well and immediately centrifuged at 120×g for 2 min at 4° C., followed by washing of each well with 300 μl PBS once with centrifugation at 2000×g for 5 min at 4° C. Then, 60 μl stock lysis buffer, containing for example 0.5% N-Lauroylsarcosine, 4×SSC, 10 mM Tris HCl, pH 7.4, 1 mM EDTA, 0.1% IGEPAL CA-630, and 1.791 M guanidine thiocyanate, supplemented with 1% 2-mercaptoethanol (Bio Rad, Hercules, Calif., USA), 0.5 mg/ml proteinase K (Pierce, Rockford, Ill., USA), 0.1 mg/ml salmon sperm DNA (5 Prime Eppendorf/Brinkmann, Westbury, N.Y., USA), 0.1 mg/ml E. coli tRNA (Sigma), a cocktail of 10 mM each of the specific reverse primers shown in Table 1, and standard RNA34 oligonucleotides, were applied to the filterplates, followed by incubation at 37° C. for 10 min. The filterplates were then placed over oligo(dT)-immobilized microplates (GenePlate, RNAture), and centrifuged at 2000×g for 5 min at 4° C. Following overnight storage at 4° C., the microplates were washed with 100 μl plain lysis buffer 3 times, followed by 150 μl of wash buffer (0.5 M NaCl, 10 mM Tris, pH 7.4, 1 mM EDTA) 3 times at 4° C. The cDNA was directly synthesized in each well by adding 30 μl buffer containing 1×RT-buffer, 1.25 mM each of dNTP, 4 units rRNasin, and 80 units of MMLV reverse transcriptase (Promega) (without primers), and incubation at 37° C. for 2 hours. The specific primer-primed cDNA existed in solution, and oligo(dT)-primed cDNA stayed immobilized in the microplate. For TaqMan PCR (FIGS. 1, 3, 4), the resultant 4 μl cDNA solution was directly transferred to 384-well PCR plates, to which 5 μl of TaqMan universal master mix (ABI) and 1 μl oligonucleotide cocktail (15 μM each of forward and reverse primer, and 3-6 μM TaqMan probe) were applied, and PCR was conducted in PRISM 7900HT (ABI), with one cycle of 95° C. for 10 min followed by 45 cycles of 95° C. for 30 sec, 55° C. for 30 sec, and 60° C. for 1 min. For SYBR Green PCR (see FIG. 6), cDNA was diluted 3-4 fold in water, and 4 μl cDNA solution was directly transferred to 384-well PCR plates, to which 5 μl of a master mix (BioRad, Hercules, Calif.) and 1 μl of oligonucleotide cocktail (15 μM each of forward and reverse primer) were applied, and PCR was conducted in PRISM 7900HT (ABI), with one cycle of 95° C. for 10 min followed by 45 cycles of 95° C. for 30 sec and 60° C. for 1 min. Each gene was amplified in separate wells. The Ct was determined by analytical software (SDS, ABI). Although 1×RT buffer was used as a negative control, none of the primer pairs produced non-specific primer-dimers under these experimental conditions. For PUMA in FIG. 8, immobilized cDNA on the oligo(dT)-immobilized microplates was directly amplified in an iCycler (BioRad).
Quantitation of various mRNAs was conducted using the following method. Triplicate aliquots of 50 μl each of heparinized whole blood was applied to 96-well filterplates to trap leukocytes. The filterplates were placed over collection plates, and 150 μl 5 mM Tris, pH 7.4, was applied. […]

p21 mRNA [4] = experiment: drug-induced p21 mRNA expression in whole blood of healthy adults; conditions: 10 or 100 μM taxol, 2 hours at 37° C., all individuals (FIG. 13)
Excerpt: Blood was obtained from healthy adults and from two leukemic non-Hodgkin's malignant lymphoma patients. U937, KG-1, and Jurkat cells were obtained from American Type Culture Collection (ATCC, Manassas, Va.), and maintained in RPMI 1640 supplemented with 10% fetal calf serum. Of these, U937 cells are a human histiocytic lymphoma cell line, KG-1 cells are a human bone marrow myelogenous leukemia cell line, and Jurkat cells are a human T-cell lymphoblast-like, leukemia derived cell line. […] For human experiments, blood aliquots were stimulated with various anti-cancer drugs at 37° C. for 2 hours, then both p21 and BAX mRNA were measured. The anti-cancer drugs used in this study were clinical drugs, and the concentration of each drug was adjusted to typical blood levels 3-6 hours after intravenous administration.
as §1, with “1× RT-butter,” for “1×RT-buffer,”, “ABI).” for “ABI). Although 1×RT buffer was used as a negative control, none of the primer pairs produced non-specific primer-dimers under these experimental conditions. For PUMA in FIG. 8, immobilized cDNA on the oligo(dT)-immobilized microplates was directly amplified in an iCycler (BioRad).”
In 8-well strip microtubes, 1.4 μl of 50× concentrations of drugs or controls (phosphate buffered saline (PBS) or DMSO) were added, and stored at −20° C. until use. […] Seventy μl of fresh heparinized whole blood was added into each well in triplicate, and incubated at 37° C. for 2-8 hours with the cap closed. For radiation treatment, blood was stimulated at designated doses using cesium-137.

[5] = leukemic lymphoma patient 2, 2 hours at 37° C., drug concentrations (FIG. 3)
[6] = AML patient, drug concentrations of b94 (FIG. 8B)
[7] = leukemic lymphoma patient 1, 2 hours at 37° C., drug concentrations (FIG. 3)
[8] = leukemic lymphoma patient 1, 2 hours at 37° C.

## COc1cccc2c1C(=O)c1c(O)c3c(c(O)c1C2=O)C[C@@](O)(C(=O)CO)C[C@@H]3O[C@H]1C[C@H](N)[C@H](O)[C@H](C)O1 [Adriacin, doxorubicin]
p21 mRNA [1]; [5]
  p21 mRNA induction: significant p21 mRNA induction

## O=P1(N(CCCl)CCCl)NCCCO1 (centres unmarked) [Endoxan, cyclophosphamide]
p21 mRNA [1]
  p21 mRNA induction: induced

## Nc1nc(F)nc2c1ncn2[C@@H]1O[C@H](CO)[C@@H](O)[C@@H]1O [Fludara, fludarabine]
p21 mRNA [1]; [5]
  p21 mRNA induction: significant p21 mRNA induction
PUMA mRNA [2]; [6]
  PUMA induction: huge induction

## O=C1c2c(O)ccc(O)c2C(=O)c2c(NCCNCCO)ccc(NCCNCCO)c21 [MIT, mitoxantrone]
BAX mRNA; leukemic lymphoma patient 2, 2 hours at 37° C.
  BAX mRNA induction: BAX mRNA induction
PUMA mRNA [2]; [6]
  PUMA induction: huge induction
PUMA mRNA [2]; CLL patient, drug concentrations of b94 (FIG. 8A)
  PUMA induction: induced
PUMA mRNA [2]
  PUMA response: strong PUMA response

## [NH2][Pt]1([NH2])[O]C(=O)C2(CCC2)C(=O)[O]1 [Paraplatin, carboplatin]
p21 mRNA [1]; [7]
  p21 mRNA induction: significant induction
BAX mRNA; [8]
  BAX mRNA induction: significant induction

## COc1cccc2c1C(=O)c1c(O)c3c(c(O)c1C2=O)C[C@@](O)(C(=O)CO)C[C@@H]3O[C@H]1C[C@H](N)[C@H](O[C@@H]2CCCCO2)[C@H](C)O1 [THP, pirarubicin]
p21 mRNA [1]; [7]
  p21 mRNA induction: significant induction
BAX mRNA; [8]
  BAX mRNA induction: significant induction
PUMA mRNA [2]; [6]
  PUMA induction: huge induction
PUMA mRNA [2]
  PUMA response: strong PUMA response

## CC[C@]1(O)C[C@@H]2CN(CCc3c([nH]c4ccccc34)[C@@](C(=O)OC)(c3cc4c(cc3OC)N(C)[C@H]3[C@@](O)(C(=O)OC)[C@H](OC(C)=O)[C@]5(CC)C=CCN6CC[C@]43[C@@H]65)C2)C1 [VLB, vinblastine]
p21 mRNA [1]; AML patient, 2 hours at 37° C., drug concentrations of b94 (FIG. 8B)
  p21 induction: significant p21 induction

## CC(=O)O[C@H]1C(=O)[C@@]2(C)[C@H]([C@H](OC(=O)c3ccccc3)[C@]3(O)C[C@H](OC(=O)[C@H](O)[C@@H](NC(=O)c4ccccc4)c4ccccc4)C(C)=C1C3(C)C)[C@]1(OC(C)=O)CO[C@@H]1C[C@@H]2O [taxol]
PUMA mRNA [3]
  PUMA mRNA induction: failed to induce
p21 mRNA [4]
  p21 mRNA induction: failed to induce
